Measurements: patent US11857513B2, “Selective inhibitor of exon 20 insertion mutant EGFR” (Taiho Pharmaceutical Co., Ltd., priority 2016, dated 2024)

Experiments:
[1] = molecular target: T1, EGFR with mutation D770_N771insSVD (Homo sapiens, UniProt P00533, INS770SVD); experiment: Phosphorylated EGFR inhibitory activity in H1975-EGFRinsSVD cells (Simple Western); assay type: cell-based
T1 construct: expressed in transfected cells; host or cells: NCI-H1975 (human lung adenocarcinoma), PiggyBac PB-CMV-MCS-EF1-RFP+Puro vector, endogenous EGFR (T790M/L858R) knocked out by TALEN
Description: A431 cells, which are human epithelial cancer cell lines overexpressing wild-type EGFR and H1975-EGFRinsSVD cells, which are human pulmonary adenocarcinoma cell lines expressing EGFR with mutation D770_N771insSVD by gene modification, were suspended in respective mediums. These cell suspensions were individually seeded into a 60-mm dish, and incubated in a 5% CO2-containing incubator at 37° C. for 1 day. Compound A was dissolved in DMSO, and diluted with DMSO such that the test compound has a concentration 1000 times higher than the final concentration. The DMSO solution of the test compound was diluted with each medium used for suspending the cells, and each diluted solution was added to respective culture dishes of the cells such that DMS 0 has a final concentration of 0.1%, followed by incubation in a 5% CO2-containing incubator at 37° C. for 6 hours. […] The concentration of the proteins were measured using a BCA protein assay kit (Thermo Fisher Scientific), and each sample was adjusted so as to have a protein concentration suitable for measurement of phosphorylated EGFR expression. The phosphorylated EGFR expression was measured using a Simple Western (trademark) assay system […]
Additionally, the selectivity for wild-type EGFR and EGFR exon 20 insertion mutation was calculated using the following formula. […]

[2] = system: H1975-EGFRinsSVD cells; experiment: Antitumor effect, nude mice subcutaneously transplanted with H1975-EGFRinsSVD cells; assay type: in vivo, mouse; details: 200 mg/kg orally once daily, 14 days
Description: Nude mice were subcutaneously transplanted with NIH3T3-EGFRinsASV cells, NIH3T3-EGFRinsSVD cells, or H1975-EGFRinsSVD cells to which human mutant EGFR was introduced. At the point at which the tumor volume of the tumor engrafted in the nude mice grew to about 100 to 200 mm^3, the mice were allocated into groups, 5 to 6 mice for each group, by stratified randomization such that the average tumor volume between the groups was uniform.
The maximum tolerated dose was determined in accordance with the “Guidelines Involving Experimental Neoplasia Proposals in Mice and Rats” of the National Cancer Institute (NCI), from a humanitarian perspective.
To compare the changes in growth of tumor over time due to administration of the individual test compounds, a relative tumor volume (which hereinafter also referred to as “RTV”) was calculated based on the tumor volume at the time the mice were divided into groups (which is taken as 1 for the tumor growth ratio), using the following formula. For a toxicity index, the body weight was measured over time, and the average body weight change (which hereinafter also referred to as “BWC (%)”) from the day on which the mice were divided into groups was calculated in accordance with the following formula.
RTV=(the tumor volume on the day a tumor volume was measured)/(the tumor volume on the day mice were divided into groups) […]

T1 sequence (P00533 with tags, fused parts or gaps INS770SVD): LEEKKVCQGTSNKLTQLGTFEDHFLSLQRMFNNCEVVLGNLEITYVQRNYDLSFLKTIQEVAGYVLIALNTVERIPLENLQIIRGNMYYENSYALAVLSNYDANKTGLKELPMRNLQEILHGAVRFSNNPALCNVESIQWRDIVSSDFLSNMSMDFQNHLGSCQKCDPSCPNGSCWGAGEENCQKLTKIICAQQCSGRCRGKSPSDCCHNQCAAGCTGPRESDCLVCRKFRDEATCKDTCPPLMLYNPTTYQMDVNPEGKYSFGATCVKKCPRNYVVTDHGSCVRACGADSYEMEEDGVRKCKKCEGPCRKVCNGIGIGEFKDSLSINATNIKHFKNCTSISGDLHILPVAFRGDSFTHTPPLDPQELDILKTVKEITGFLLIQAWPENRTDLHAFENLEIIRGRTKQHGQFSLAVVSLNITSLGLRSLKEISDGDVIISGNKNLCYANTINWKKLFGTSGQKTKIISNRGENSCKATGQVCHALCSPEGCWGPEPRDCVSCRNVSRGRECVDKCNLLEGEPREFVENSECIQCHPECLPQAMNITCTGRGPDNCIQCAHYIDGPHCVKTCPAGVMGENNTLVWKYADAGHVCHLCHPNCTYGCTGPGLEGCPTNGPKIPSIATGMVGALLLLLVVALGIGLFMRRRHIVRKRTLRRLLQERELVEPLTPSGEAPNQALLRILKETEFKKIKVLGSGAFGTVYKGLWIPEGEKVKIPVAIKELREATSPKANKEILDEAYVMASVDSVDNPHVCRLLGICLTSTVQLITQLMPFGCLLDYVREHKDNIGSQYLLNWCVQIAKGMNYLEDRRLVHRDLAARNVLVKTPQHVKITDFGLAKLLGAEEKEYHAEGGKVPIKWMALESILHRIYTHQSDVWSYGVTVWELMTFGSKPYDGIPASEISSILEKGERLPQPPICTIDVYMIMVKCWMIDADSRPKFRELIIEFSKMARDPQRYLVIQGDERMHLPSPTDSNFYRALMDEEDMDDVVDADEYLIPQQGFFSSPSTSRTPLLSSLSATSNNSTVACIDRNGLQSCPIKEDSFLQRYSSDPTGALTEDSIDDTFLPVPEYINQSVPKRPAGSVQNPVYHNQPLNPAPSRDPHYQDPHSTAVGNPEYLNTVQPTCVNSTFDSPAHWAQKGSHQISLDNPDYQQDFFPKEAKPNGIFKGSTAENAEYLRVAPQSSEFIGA

SMILES: C=CC(=O)N[C@H]1C=C(C)c2c(-c3cnc4ccccc4c3)c3c(N)ncnc3n2C1 [Compound A, (S)—N-(4-amino-6-methyl-5-(quinolin-3-yl)-8,9-dihydropyrimido[5,4-b]indolizin-8-yl)acrylamide]
- IC50 ([1]; H1975-EGFRinsSVD cells, 6 hours, Tyr1068): 23 nM
- IC50 Ratio=IC50 (A431)/IC50 (H1975 EGFRinsSVD) ([1]; phosphorylated EGFR): 23.3
- T/C (%) on the final evaluation day [2]: 6%
